Data reported in PubChem BioAssay (NCI).
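48-hour exposure; five concentrations; linearly interpolated endpoints. GI50: concentration for 50% inhibition of growth. At the TGI there is no net growth.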

Tests used:
Test in all cases: NCI anticancer screen, dose series, 48 h
[1] = system: A498 renal
[2] = system: CCRF-CEM leukemia
[3] = system: K-562 leukemia
[4] = system: M14 melanoma
[5] = system: MDA-MB-231 breast
[6] = system: OVCAR-8 ovarian
[7] = system: SK-MEL-2 melanoma
[8] = system: SK-MEL-28 melanoma
[9] = system: UO-31 renal
[10] = system: NCI-H226 lung

Compound	GI50 [1]	TGI [1]	GI50 [2]	TGI [2]	GI50 [3]	TGI [3]	GI50 [4]	TGI [4]	GI50 [5]	TGI [5]	GI50 [6]	TGI [6]	GI50 [7]	TGI [7]	GI50 [8]	TGI [8]	GI50 [9]	TGI [9]	TGI [10]	GI50 [10]
Cc1ccc(N=C/C=C(\Nc2ccc(C)cc2)c2ccc(Cl)cc2)cc1	16.8 µM	34.1 µM	1.95 µM	33.5 µM	4.75 µM	> 100 µM	4.96 µM	22.5 µM	11.2 µM	46.6 µM	14.6 µM	53.6 µM	29.9 µM	> 100 µM	4.99 µM	27.1 µM	21.4 µM	85.8 µM	–	–
O=C(CCc1nc(=S)[nH][nH]1)Nc1ccccc1Cl	–	> 100 µM	–	> 100 µM	–	> 100 µM	–	> 100 µM	–	–	–	> 100 µM	–	> 100 µM	–	> 100 µM	–	> 100 µM	> 100 µM	–
CCCC1=C(CC)C(C(=O)Nc2c(C)cccc2C)=NC(S)N1 (stereo not given)	–	> 100 µM	–	> 100 µM	–	> 100 µM	–	> 100 µM	–	–	–	> 100 µM	–	> 100 µM	–	> 100 µM	–	> 100 µM	> 100 µM	–
CNC(=S)/N=C(\N)N(C)C	–	> 100 µM	–	–	–	> 100 µM	–	> 100 µM	–	–	–	> 100 µM	–	–	–	> 100 µM	–	> 100 µM	> 100 µM	–
COc1cc2c3c(n(CCCN)c(=O)c2cc1OC)-c1ccc(C#N)cc1C3=O	–	–	6.44 µM	31.7 µM	–	65.4 µM	15.3 µM	31.6 µM	14.3 µM	29.3 µM	5.54 µM	24.9 µM	26.2 µM	> 100 µM	18.5 µM	35.7 µM	19.1 µM	71.2 µM	38 µM	17.3 µM
CN1CCc2nc(N)nc(-c3nc(N)nc4c3CN(C)CC4)c2C1	–	> 100 µM	–	–	–	> 100 µM	–	> 100 µM	–	> 100 µM	–	> 100 µM	–	> 100 µM	–	> 100 µM	–	> 100 µM	> 100 µM	–
O=C(c1cccc2ccccc12)N1CCC(C2CCN(C(=O)c3cccc4ccccc34)CC2)CC1	–	> 100 µM	–	> 100 µM	–	> 100 µM	–	> 100 µM	–	–	–	> 100 µM	–	> 100 µM	–	> 100 µM	–	> 100 µM	> 100 µM	–
c1ccc(C2N3CCCCC3[C@@H]3c4[nH]c5ccccc5c4CCN23)nc1 (stereo not given in full)	–	> 100 µM	–	> 100 µM	–	> 100 µM	–	> 100 µM	–	–	–	> 100 µM	–	> 100 µM	–	> 100 µM	–	> 100 µM	–	–
Nc1ccccc1/C(O)=C1/CCOC1=O	–	> 100 µM	–	> 100 µM	–	> 100 µM	–	> 100 µM	–	–	–	> 100 µM	–	> 100 µM	–	> 100 µM	–	> 100 µM	> 100 µM	–
O=C1C2C3C=C4c5ccccc5N(c5ccccc5)C4(C2C(=O)N1c1ccc([N+](=O)[O-])cc1)[C@H]1C(=O)N(c2ccc([N+](=O)[O-])cc2)C(=O)[C@@H]31 (stereo not given in full)	–	> 100 µM	–	> 100 µM	–	> 100 µM	–	> 100 µM	–	–	–	> 100 µM	–	> 100 µM	–	> 100 µM	–	> 100 µM	> 100 µM	–
CC1(C)C(=O)/C(=C\c2cccnc2)C[C@]2(C)[C@H]3CC[C@@H]4[C@H]5[C@H](C(=O)/C=C/c6cccnc6)CC[C@]5(C(=O)O)CC[C@@]4(C)[C@]3(C)CC[C@@H]12	1.92 µM	3.44 µM	1.44 µM	8.07 µM	2.05 µM	20.5 µM	2.64 µM	8.97 µM	–	–	3.5 µM	> 100 µM	2.54 µM	6.66 µM	2.16 µM	4.39 µM	–	–	–	–
COc1ccc2c3c([nH]c2c1[N+](=O)[O-])C(C)N(C)CC3 (stereo not given)	–	> 100 µM	–	95.2 µM	–	40.1 µM	–	> 100 µM	–	–	–	> 100 µM	–	> 100 µM	–	> 100 µM	–	> 100 µM	> 100 µM	–
CCOC(=O)CCC(=O)C1c2cccc(O)c2C(=O)c2c(O)cc(C)cc21 (stereo not given)	–	4.75 µM	–	2.75 µM	–	10.9 µM	–	2.71 µM	–	–	–	2.01 µM	–	1.08 µM	–	2.92 µM	–	1.19 µM	1.75 µM	–
CCCN(CCC)C(=O)c1c([N+](=O)[O-])cc(C(F)(F)F)cc1[N+](=O)[O-]	–	> 100 µM	–	> 100 µM	–	> 100 µM	–	> 100 µM	–	–	–	> 100 µM	–	> 100 µM	–	> 100 µM	–	> 100 µM	65.3 µM	–
Cc1[nH]c(=O)nc2[nH][nH]c(=O)c12	–	–	–	> 100 µM	–	> 100 µM	–	> 100 µM	–	–	–	> 100 µM	–	> 100 µM	–	> 100 µM	–	–	> 100 µM	–
COc1ccc(-c2cc(-c3cc(C)cc(Br)c3O)no2)cc1	–	13 µM	–	–	–	> 100 µM	–	> 100 µM	–	64.6 µM	–	> 100 µM	–	75 µM	–	> 100 µM	–	31.9 µM	42.4 µM	–
CN(C)CCC1(C2=CCCC2)CC/C(=C\c2ccc(Cl)cc2)C1=O (stereo not given)	–	19.1 µM	–	> 22.7 µM	–	> 23.2 µM	–	3.84 µM	–	–	–	25.3 µM	–	14.2 µM	–	7.4 µM	–	18.8 µM	28.1 µM	–
COC(=O)[C@@]12C(=O)C=CC(=O)C1C1C(=CC2C)OC2OC3(CCCCC3)OC21 (stereo not given in full)	–	32.2 µM	–	7.49 µM	–	74.6 µM	–	33.6 µM	–	–	–	30.9 µM	–	35.5 µM	–	33.6 µM	–	30.5 µM	33.7 µM	–
Cn1cc(C2(C)CC(C)(C)c3c2n(C)c2ccccc32)c2ccccc21 (stereo not given)	–	> 100 µM	–	> 100 µM	–	> 100 µM	–	> 100 µM	–	–	–	> 100 µM	–	> 100 µM	–	> 100 µM	–	> 100 µM	> 100 µM	–
CCCCNC1CCCCC[C@H]1O (stereo not given in full)	–	–	–	> 100 µM	–	> 100 µM	–	> 100 µM	–	–	–	> 100 µM	–	> 100 µM	–	> 100 µM	–	> 100 µM	> 100 µM	–
COC(=O)C(CC(=O)Nc1ccc(C)cc1)C(=O)C(=O)Nc1c(C(C)C)cccc1C(C)C (stereo not given)	–	> 100 µM	–	> 100 µM	–	> 100 µM	–	> 100 µM	–	–	–	> 100 µM	–	> 100 µM	–	> 100 µM	–	> 100 µM	> 100 µM	–
CN(Cc1ccccc1)C(=O)c1ccccc1C(=O)O	–	–	–	> 100 µM	–	> 100 µM	–	> 100 µM	–	–	–	> 100 µM	–	> 100 µM	–	–	–	> 100 µM	> 100 µM	–
c1cnn(CN(Cn2cccn2)Cn2cccn2)c1	–	> 100 µM	–	> 100 µM	–	> 100 µM	–	> 100 µM	–	–	–	> 100 µM	–	> 100 µM	–	> 100 µM	–	> 100 µM	–	–
